# Data published in patent US20060069132A1, “Azolecarboxamide herbicides” (priority 2004, published 2006).
# Tests used:
# lambsquarters [1] = assay: Test C pre-/postemergence herbicide test; format: in vivo, Chenopodium album
# In short: (§1)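 Pre- and postemergence application, solvent/surfactant formulation; post at 1- to 4-leaf stage (2–18 cm). Greenhouse 12–14 d. Visual rating vs controls, 0 = no effect, 100 = complete control.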
# cocklebur = assay: Test B pre-/postemergence herbicide test; format: in vivo, Xanthium strumarium; settings: for Plant response rating (0 to 100 scale), Cocklebur: 0 is no effect
# In short: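 Plants compared with untreated controls 13–15 days post-treatment and given a visual 0–100 injury score. Applications: preemergence to seeds; postemergence at 1- to 4-leaf (2–18 cm); paddy species flooded, 2-leaf stage. Vehicle non-phytotoxic, surfactant included.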
# woolly cupgrass = assay: Test C pre-/postemergence herbicide test; format: in vivo, Eriochloa villosa
# In short: as §1
# Surinam grass = assay: Test C pre-/postemergence herbicide test; format: in vivo, Urochloa decumbens
# In short: as §1
# johnsongrass = assay: Test C pre-/postemergence herbicide test; format: in vivo, Sorghum halepense
# In short: as §1
# lambsquarters [2] = assay: Test B pre-/postemergence herbicide test; format: in vivo, Chenopodium album; settings: for Plant response rating (0 to 100 scale), Lambsquarters: 0 is no effect
# In short: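 Seeds were planted and treated preemergence with compounds formulated in a non-phytotoxic solvent mixture containing surfactant, while plants at the 1- to 4-leaf stage (2 to 18 cm) received postemergence sprays. Flooded paddy plants were grown to the 2-leaf stage. After 13 to 15 days in a greenhouse, injury was visually rated 0–100 against untreated controls.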
# pigweed = assay: Test C pre-/postemergence herbicide test; format: in vivo, Amaranthus retroflexus
# In short: as §1
# [3] = 62 g ai/ha, preemergence, scale 0 to 100
# [4] = 250 g ai/ha, scale 0-100, preemergence
# [5] = 500 g ai/ha, scale 0 to 100 (0 no effect, 100 complete control), visual, 12 to 14 days, preemergence
# [6] = 125 g ai/ha, 100 is complete control, preemergence
# [7] = 125 g ai/ha, visual rating, scale 0 (no effect) to 100 (complete control), postemergence
# [8] = Postemergence, 500 g ai/ha, scale 0 (no effect) to 100 (complete control)
# [9] = 125 g ai/ha, scale 0 (no effect) to 100 (complete control), visual, 12 to 14 days, preemergence
# [10] = Postemergence, 500 g ai/ha, scale 0 to 100
# [11] = Postemergence, 250 g ai/ha, scale 0 to 100, 0 no effect, 100 complete control
# [12] = postemergence, 125 g ai/ha, scale 0 to 100
# [13] = postemergence, 62 g ai/ha, scale 0 to 100
# [14] = 500 g ai/ha, visual rating, 0 = no effect, 100 = complete control, preemergence
# [15] = postemergence, 500 g ai/ha, scale 0 to 100, 0 is no effect, 100 is complete control
# [16] = Preemergence, 500 g ai/ha, scale 0 to 100, 0 no effect, 100 complete control
# [17] = Postemergence, 250 g ai/ha, scale 0 (no effect) to 100 (complete control)
compound,measurement,setting,value
CCNC(=O)c1ccc(F)c(N(C(C)=O)C(=O)c2cc(C(C)(C)C)nn2CC)c1 [Compound 399],"Plant response rating, Lambsquarters",lambsquarters [1]; [3],100
same,"Plant response rating (0 = no effect, 100 = complete control), Lambsquarters","lambsquarters [1]; 125 g ai/ha, preemergence",100
same,"Plant response rating, Lambsquarters",lambsquarters [1]; [4],100
same,"Plant response rating, Lambsquarters",lambsquarters [1]; [5],100
same,"Plant response rating (0 to 100 scale), Cocklebur",cocklebur; [6],50
same,Cocklebur plant response rating,cocklebur; [7],60
same,Cocklebur plant response rating,cocklebur; [8],80
same,"Plant response rating, Cupgrass, Woolly",woolly cupgrass; [3],45
same,"Plant response rating (0 = no effect, 100 = complete control), Cupgrass, Woolly","woolly cupgrass; 125 g ai/ha, preemergence",65
same,"Plant response rating, Cupgrass, Woolly",woolly cupgrass; [4],80
same,"Plant response rating, Cupgrass, Woolly",woolly cupgrass; [5],95
same,"Plant response rating, Surinam Grass",Surinam grass; [3],95
same,"Plant response rating (0 = no effect, 100 = complete control), Surinam Grass","Surinam grass; 125 g ai/ha, preemergence",95
same,"Plant response rating, Surinam Grass",Surinam grass; [5],100
same,"Plant response rating, Johnsongrass",johnsongrass; [3],95
same,"Plant response rating (0 = no effect, 100 = complete control), Johnsongrass","johnsongrass; 125 g ai/ha, preemergence",100
same,"Plant response rating, Johnsongrass",johnsongrass; [4],100
same,"Plant response rating, Johnsongrass",johnsongrass; [5],100
same,"Plant response rating (0 to 100 scale), Lambsquarters",lambsquarters [2]; [6],100
same,Lambsquarters plant response rating,lambsquarters [2]; [7],80
same,Lambsquarters plant response rating,lambsquarters [2]; [8],100
same,"Plant response rating, Pigweed",pigweed; [3],100
same,"Plant response rating (0 = no effect, 100 = complete control), Pigweed","pigweed; 125 g ai/ha, preemergence",100
same,"Plant response rating, Pigweed",pigweed; [5],100
CCn1nc(C(C)(C)C)cc1C(=O)Nc1cccc(OC(F)(F)C(F)F)c1 [Compound 333],"Plant response rating, Lambsquarters",lambsquarters [1]; [3],95
same,"Plant response rating, Lambsquarters",lambsquarters [1]; [9],100
same,"Plant response rating, Lambsquarters",lambsquarters [1]; [4],100
same,"Plant response rating, Lambsquarters",lambsquarters [1]; [5],100
same,Lambsquarters plant response rating,lambsquarters [1]; [10],100
same,"Plant response rating, Lambsquarters",lambsquarters [1]; [11],80
same,"Plant response rating, Lambsquarters",lambsquarters [1]; [12],80
same,"Plant response rating, Lambsquarters",lambsquarters [1]; [13],60
same,"Plant response rating (0 to 100 scale), Cocklebur",cocklebur; [6],0
same,Cocklebur plant response rating,cocklebur; [7],20
same,"Plant response rating, Cocklebur",cocklebur; [14],0
same,Cocklebur plant response rating,cocklebur; [15],80
same,"Plant response rating, Cupgrass, Woolly",woolly cupgrass; [3],0
same,"Plant response rating, Cupgrass, Woolly",woolly cupgrass; [9],0
same,"Plant response rating, Cupgrass, Woolly",woolly cupgrass; [4],0
same,"Plant response rating, Cupgrass, Woolly",woolly cupgrass; [5],30
same,"Cupgrass, Woolly plant response rating",woolly cupgrass; [10],10
same,"Plant response rating, Cupgrass, Woolly",woolly cupgrass; [11],5
same,"Plant response rating, Cupgrass, Woolly",woolly cupgrass; [12],0
same,"Plant response rating, Cupgrass, Woolly",woolly cupgrass; [13],0
same,"Plant response rating, Surinam Grass",Surinam grass; [4],5
same,"Plant response rating, Surinam Grass",Surinam grass; [5],20
same,Surinam Grass plant response rating,Surinam grass; [10],10
same,"Plant response rating, Surinam Grass",Surinam grass; [11],5
same,"Plant response rating, Surinam Grass",Surinam grass; [12],5
same,"Plant response rating, Surinam Grass",Surinam grass; [13],5
same,"Plant response rating, Johnsongrass",johnsongrass; [3],0
same,"Plant response rating, Johnsongrass",johnsongrass; [9],0
same,"Plant response rating, Johnsongrass",johnsongrass; [4],5
same,"Plant response rating, Johnsongrass",johnsongrass; [5],5
same,Johnsongrass plant response rating,johnsongrass; [10],0
same,"Plant response rating, Johnsongrass",johnsongrass; [11],0
same,"Plant response rating, Johnsongrass",johnsongrass; [12],0
same,"Plant response rating, Johnsongrass",johnsongrass; [13],0
same,"Plant response rating (0 to 100 scale), Lambsquarters",lambsquarters [2]; [6],40
same,Lambsquarters plant response rating,lambsquarters [2]; [7],90
same,"Plant response rating, Lambsquarters",lambsquarters [2]; [14],100
same,Lambsquarters plant response rating,lambsquarters [2]; [15],100
same,"Plant response rating, Pigweed",pigweed; [3],100
same,"Plant response rating, Pigweed",pigweed; [9],100
same,"Plant response rating, Pigweed",pigweed; [4],100
same,"Plant response rating, Pigweed",pigweed; [5],100
same,Pigweed plant response rating,pigweed; [10],100
same,"Plant response rating, Pigweed",pigweed; [11],100
same,"Plant response rating, Pigweed",pigweed; [12],100
same,"Plant response rating, Pigweed",pigweed; [13],65
CCNC(=O)c1ccnc(NC(=O)c2cc(C(C)(C)C)nn2CC)c1 [Compound 152],"Plant response rating, Lambsquarters",lambsquarters [1]; [3],100
same,"Plant response rating, Lambsquarters",lambsquarters [1]; [9],100
same,Lambsquarters plant response rating,lambsquarters [1]; [16],100
same,Cocklebur plant response rating,cocklebur; [17],90
same,Cocklebur plant response rating,cocklebur; [13],60
same,"Plant response rating, Cupgrass, Woolly",woolly cupgrass; [3],40
same,"Plant response rating, Cupgrass, Woolly",woolly cupgrass; [9],50
same,"Plant response rating, Cupgrass, Woolly","woolly cupgrass; 250 g ai/ha, scale 0 to 100 (0 no effect, 100 complete control), visual, 12 to 14 days, preemergence",100
same,"Cupgrass, Woolly plant response rating",woolly cupgrass; [16],100
same,"Plant response rating, Surinam Grass",Surinam grass; [3],40
same,"Plant response rating, Surinam Grass",Surinam grass; [9],60
same,Surinam Grass plant response rating,Surinam grass; [16],100
same,"Plant response rating, Johnsongrass",johnsongrass; [3],80
same,"Plant response rating, Johnsongrass",johnsongrass; [9],100
same,Johnsongrass plant response rating,johnsongrass; [16],100
same,Lambsquarters plant response rating,lambsquarters [2]; [17],80
same,Lambsquarters plant response rating,lambsquarters [2]; [13],70
same,"Plant response rating, Pigweed",pigweed; [3],85
same,"Plant response rating, Pigweed",pigweed; [9],100
same,Pigweed plant response rating,pigweed; [16],100
